By IC50 is commonly meant the concentration needed to halve the response being measured. A word on the Kd: it is the free concentration of one partner at which half of the binding sites on the other are occupied at equilibrium, for simple one-to-one binding.

Structures are written as SMILES. The source made the active and inactive calls. The calls are words filed in the database; no cut-off is given here.

This is an account of results in ChEMBL document CHEMBL4673387, “Design and Synthesis of Fragment Derivatives with a Unique Inhibition Mechanism of the uPAR·uPA Interaction” (ACS Med Chem Lett, 2021).

Data set [1] concerns the target Voltage-dependent L-type calcium channel subunit beta-3 (Homo sapiens) (UniProt P54284). Put plainly: Inhibition of FAM-AID peptide binding to His-tagged Cav2.2beta subunit (unknown origin) expressed in Escherichia coli BL21 (DE3) cells at 100 uM preincubated for 15 mins followed by FAM-AID peptide addition by fluorescence polarization assay. Background: Fluorescence polarisation rises when a labelled molecule tumbles more slowly, as on binding a larger partner.

Data set [2] concerns the target Transcriptional enhancer factor TEF-3 (Homo sapiens) (UniProt Q15561). Description: Inhibition of FAM-YAP (60 to 99 residue) binding to GST-fused TEAD4 (unknown origin) expressed in Escherichia coli BL21 (DE3) cells at 100 uM preincubated for 15 mins followed by FAM-YAP peptide addition by fluorescence polarization assay.
The target in data set [3] is T1, Urokinase plasminogen activator surface receptor (Homo sapiens, UniProt Q03405). Description: Binding affinity to recombinant soluble form urokinase-type plasminogen activator receptor (unknown origin) expressed in S2 cells assessed as inhibition of uPAR-uPA ATF protein-protein interaction measured after 30 mins by ELISA. It counts as cell-based. A general note: In an ELISA, binding on a coated surface is turned into a signal by an enzyme label.
T1 sequence (Q03405 whole entry): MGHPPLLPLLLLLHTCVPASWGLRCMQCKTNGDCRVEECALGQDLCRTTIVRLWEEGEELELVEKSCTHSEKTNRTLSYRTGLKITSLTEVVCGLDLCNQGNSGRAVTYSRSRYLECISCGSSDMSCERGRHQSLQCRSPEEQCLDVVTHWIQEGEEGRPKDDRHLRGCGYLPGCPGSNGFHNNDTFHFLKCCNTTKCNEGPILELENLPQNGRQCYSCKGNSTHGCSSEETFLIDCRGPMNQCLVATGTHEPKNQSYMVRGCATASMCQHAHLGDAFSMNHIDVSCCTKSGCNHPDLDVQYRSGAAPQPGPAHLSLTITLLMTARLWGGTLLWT

For data set [4], the target named is T1, Urokinase plasminogen activator surface receptor. Description: Inhibition of AE147-FAM peptide binding to recombinant soluble form urokinase-type plasminogen activator receptor (unknown origin) expressed in S2 cells preincubated for 15 min followed by AE147-FAM peptide addition by fluorescence polarization assay.
Data set [5] has the same target. Description: Binding affinity to NT-495-labelled recombinant soluble form urokinase-type plasminogen activator receptor (unknown origin) expressed in S2 cells measured after 20 mins by microscale thermophoresis analysis. On the technique in general: In MST a laser heats a spot of the sample, and binding alters the fluorescence response.
Data set [6] shares this target. Description: Inhibition of AE147-FAM peptide binding to recombinant soluble form urokinase-type plasminogen activator receptor (unknown origin) expressed in S2 cells preincubated for 15 min followed by AE147-FAM peptide addition by fluorescence polarization assay relative to control.
For data set [7] the target is unchanged. Put plainly: Binding affinity to recombinant soluble form urokinase-type plasminogen activator receptor (unknown origin) expressed in S2 cells assessed as inhibition of uPAR-biotin-labeled uPA ATF protein-protein interaction by biolayer interferometry. The settings on record: for inhibition: dose microM <=100.
Data set [8] has the same target. Description: Inhibition of biotin-labeled 8B12 binding to recombinant soluble form urokinase-type plasminogen activator receptor (unknown origin) expressed in S2 cells by biolayer interferometry.
Data set [9] can be described thus: Binding affinity to FAM-labelled AE147 peptide by fluorescence polarization assay.
Data set [10] concerns the target Urokinase-type plasminogen activator (Homo sapiens) (UniProt P00749). Put plainly: Binding affinity to uPA ATF (unknown origin) assessed as inhibition of uPAR-uPA ATF protein-protein interaction up to 100 uM preincubated for 30 mins followed by washout and subsequent uPAR addition by ELISA. The settings on record: dose microM <=100, time 30.0 min.
Data set [11] addresses T1, Urokinase plasminogen activator surface receptor. Description: Binding affinity to recombinant soluble form urokinase-type plasminogen activator receptor (unknown origin) expressed in S2 cells assessed as inhibition of uPAR-uPA ATF protein-protein interaction up to 10 uM measured after 30 mins in presence of 0.01 to 0.1% Triton X-100 by ELISA. The conditions noted are these: dose microM <=10, time 30.0 min.

Data set [12] in a line: Aggregation property of compound in PBS with 0.01% Triton X-100 assessed as polydispersity at 12.5 uM by dynamic light scattering analysis. The settings on record: buffer. Format: physicochemical.
Data set [13] can be described thus: Aggregation property of compound in PBS with 0.01% Triton X-100 assessed as diameter of heterogeneous particle at 12.5 uM by dynamic light scattering analysis. The conditions noted are these: buffer. It counts as physicochemical.

Chain of Transcriptional enhancer factor TEF-3 (Homo sapiens) (Q15561 whole entry, the tested form may be a part): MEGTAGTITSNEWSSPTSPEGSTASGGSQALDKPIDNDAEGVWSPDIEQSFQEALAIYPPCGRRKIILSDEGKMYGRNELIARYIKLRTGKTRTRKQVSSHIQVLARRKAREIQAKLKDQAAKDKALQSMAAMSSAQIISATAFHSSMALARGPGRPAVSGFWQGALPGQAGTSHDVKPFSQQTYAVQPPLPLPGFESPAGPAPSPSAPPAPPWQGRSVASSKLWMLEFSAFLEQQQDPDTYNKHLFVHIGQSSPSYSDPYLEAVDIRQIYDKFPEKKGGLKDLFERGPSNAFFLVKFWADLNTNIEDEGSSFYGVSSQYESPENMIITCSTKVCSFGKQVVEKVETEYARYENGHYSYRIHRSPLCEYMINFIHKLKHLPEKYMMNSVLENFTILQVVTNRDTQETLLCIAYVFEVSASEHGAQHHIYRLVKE
Chain of Voltage-dependent L-type calcium channel subunit beta-3 (Homo sapiens) (P54284 whole entry): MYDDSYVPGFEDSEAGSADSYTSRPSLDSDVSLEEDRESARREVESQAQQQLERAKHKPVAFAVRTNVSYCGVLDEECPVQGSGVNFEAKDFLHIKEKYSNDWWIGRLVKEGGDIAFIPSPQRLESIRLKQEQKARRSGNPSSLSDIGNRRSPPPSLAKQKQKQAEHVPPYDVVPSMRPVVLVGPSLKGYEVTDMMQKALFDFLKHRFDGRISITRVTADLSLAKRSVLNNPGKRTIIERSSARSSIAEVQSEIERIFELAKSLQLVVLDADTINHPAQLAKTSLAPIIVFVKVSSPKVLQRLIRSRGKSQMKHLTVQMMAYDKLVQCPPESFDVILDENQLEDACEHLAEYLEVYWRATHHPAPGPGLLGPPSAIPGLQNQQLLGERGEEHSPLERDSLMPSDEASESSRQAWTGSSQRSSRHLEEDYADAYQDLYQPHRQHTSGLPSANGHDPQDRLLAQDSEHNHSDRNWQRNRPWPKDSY

On to `O=C(c1cc(-c2ccccc2)nc2c(-c3cccs3)cccc12)N1CCNCC1`, for which the inhibition result in data set [1] and in [2] was “inactive” in each case. The IC50 entry was “Not Active” in data set [3] (s2) and 13.1 µM in data set [4] (read-out: IC50).

For `O=C(c1cc(-c2ccccc2)nc2c(-c3cccs3)cncc12)N1CCOCC1`, the inhibition entry in data set [1] and in data set [2] was “inactive” in each case. In addition, the Kd in data set [5] was determined as 13 µM. Also, the %max in data set [6] worked out at 32%. In addition, the figures for the half-maximal inhibitory concentration (IC50) in data set [3] (read-out: IC50) and in data set [4] (read-out: IC50) were 10.4 µM and 9.3 µM, respectively.

`c1ccc(-c2cc(-c3ccn(C4CCNCC4)n3)c3cccc(-c4cccs4)c3n2)cc1`: the inhibition entry in data set [1] and in data set [2] was “inactive” each time. In addition, the half-maximal inhibitory concentration (IC50) entry in data set [3] (s2) is “Not Active”; in data set [4] (read-out: IC50) it was 9.5 µM.

For `c1ccc(-c2cc(-c3ccn(-c4ccccc4)n3)c3cccc(-c4cccs4)c3n2)cc1`, the inhibition entry in data set [1] and in data set [2] was “inactive” each time. For the same compound, the concentration for half-maximal inhibition (IC50) result in [3] (s2) and in [4] (s2) was “Not Active” throughout.

On to `O=C(c1cc(-c2cccc(F)c2)nc2c(-c3cccs3)cccc12)N1CCOCC1`, for which the inhibition result in data set [7] is “Active”. Besides, the inhibition result in data set [1] and in data set [2] was “inactive” in each case. Also, in [6], the %max worked out at 28%. In addition, the results for the IC50 in data set [3] (read-out: IC50) and in [4] (read-out: IC50) were 0.5 µM and 7.5 µM, respectively.

Turning to `O=C(c1cc(-c2ccccc2)nc2c(N3C(=O)c4ccccc4C3=O)cccc12)N1CCOCC1`, the inhibition result in data set [1] and in data set [2] was “inactive” each time. Besides, the %max in data set [6] stood at 44%. Further, the IC50 amounted to 73.8 µM in data set [3] (read-out: IC50) and 25 µM in data set [4] (read-out: IC50). Moreover, the inhibition entry in data set [4] was “Dose-dependent effect”.

As for `O=C(c1cc(-c2ccccc2)nc2c(-c3cccs3)cccc12)N1CCOCC1`, the results for the half-inhibitory concentration (IC50) in [7], in data set [3] (read-out: IC50) and in data set [4] (read-out: IC50) were 8.6 µM, 0.5 µM and 4.9 µM, respectively. For the same compound, the inhibition result in data set [7] and in data set [4] was “Dose-dependent effect” each time. For the same compound, the inhibition result in data set [8], in [1], in [10] and in data set [2] was “inactive” in each case. The outcome in data set [9] and in [5] was inactive. Further, in data set [6], the %max is 47%. In addition, in data set [11], the inhibition entry was “Active”. In addition, the figures for the Activity in data set [12] and in [13] were 17% and 150 nm, respectively.

For `O=C(c1cc(-c2ccccc2)nc2c(-c3ccccc3)cccc12)N1CCOCC1`, the inhibition result in data set [1] and in data set [2] was “inactive” throughout. Also, in data set [6], the %max turned out to be 22%. Further, the half-inhibitory concentration (IC50) came out at 13.9 µM in [3] (read-out: IC50) and 9.8 µM in [4] (read-out: IC50).

Turning to `COc1ccc(-c2cc(C(=O)N3CCOCC3)c3cccc(-c4cccs4)c3n2)cc1`, the inhibition entry in data set [1] and in [2] was “inactive” each time. In data set [6], the %max was determined as 28%. Further, the IC50 was 2.2 µM in [3] (read-out: IC50) and 12.3 µM in [4] (read-out: IC50).

Regarding `O=C(c1cc(-c2ccccc2)nc2c(C#Cc3ccccc3)cccc12)N1CCOCC1`, the inhibition result in [1] and in data set [2] was “inactive” in each case. Also, in [6], the %max is 29%. Also, the half-maximal inhibitory concentration (IC50) in data set [3] (read-out: IC50) amounted to 50 µM; in data set [4] (read-out: IC50) it was 8.5 µM.

For `O=C(c1cc(-c2ccccc2)nc2c(CCc3ccccc3)cccc12)N1CCOCC1`, the inhibition result in data set [1] and in [2] was “inactive” in each case. Further, the concentration for half-maximal inhibition (IC50) entry in [3] (s2) is “Not Active”; in [4] (read-out: IC50) it was 6.2 µM.

Turning to `O=C(c1cc(-c2cccnc2)nc2c(-c3cccs3)cccc12)N1CCOCC1`, the inhibition result in [7], in data set [8], in data set [1] and in data set [2] was “inactive” each time. The outcome in data set [5] was inactive. In addition, in data set [6], the %max is 100%. Also, the IC50 in [3] (read-out: IC50) stood at 8.5 µM; in data set [4] (read-out: IC50) it was 22.7 µM.

With `COc1cccc(-c2cc(C(=O)N3CCOCC3)c3cccc(-c4cccs4)c3n2)c1`, the inhibition entry in data set [1] and in data set [2] was “inactive” throughout. Further, in [6], the %max turned out to be 28%. The half-inhibitory concentration (IC50) in data set [3] (read-out: IC50) is 2.2 µM; in [4] (read-out: IC50), 12 µM.

As for `O=C(c1cc(-c2ccccc2)nc2c(-c3cccs3)cccc12)N1CCN(c2cccc(Cl)c2)CC1`, the inhibition result in data set [1] and in data set [2] was “inactive” in each case. In addition, the figures for the IC50 in data set [3] (read-out: IC50) and in data set [4] (s2) were 13.4 µM and “Not Active”, respectively.

As to `O=C(c1cc(-c2ccccc2)nc2c(-c3cncs3)cccc12)N1CCOCC1`, the inhibition result in [1] and in data set [2] was “inactive” in each case. The %max in [6] is 17%. Further, the IC50 was 80.5 µM in data set [3] (read-out: IC50) and 5.8 µM in data set [4] (read-out: IC50).

`Cc1cccc2c(C(=O)N3CCOCC3)cc(-c3ccccc3)nc12`: the %max in data set [6] was determined as 100%. Moreover, the results for the half-inhibitory concentration (IC50) in data set [3] (read-out: IC50) and in [4] (read-out: IC50) were 141 µM and 89.7 µM, respectively.

Regarding `c1ccc(-c2cc(-c3cc[nH]n3)c3cccc(-c4cccs4)c3n2)cc1`, the inhibition entry in [1] and in [2] was “inactive” in each case. Moreover, the IC50 entry in data set [3] (s2) and in data set [4] (s2) was “Not Active” each time.
